In article PMC8741514, “Post-translational modifications within tau paired helical filament nucleating motifs perturb microtubule interactions and oligomer formation” (The Journal of Biological Chemistry, 2021):
Entries after “also recorded” stand apart in the source; their conditions may differ.

Tested on: T2R complex
Test: STD NMR titration, tau peptide binding to T2R
Parameters: species or system porcine (tubulin isolated from porcine brain)
Details: T2R 10 μM; for STD signal / binding to T2R: 1H STD NMR, peptide 2.8 mM, 600 MHz, saturation time 2 s, GPEM buffer pH 6.9; for STD signal / binding to T2R / apparent Kd / affinity for T2R (in words): 10 °C; for apparent Kd / affinity for T2R (in words): STD amplification factor fit, large errors, qualitative
Method: Tubulin protein isolated from porcine brain (97 or >99% pure) was purchased from Cytoskeleton, Inc, as a lyophilized powder. Stathmin-like RB3 domain (RB3SLD) binds to heterodimeric tubulin with a 1:2 stoichiometry, forming a longitudinal dimer of tubulin dimers. For ^1H,^15N HSQC NMR experiments, lyophilized tubulin was dissolved into a solution of 48 μM ^15N-labeled K18 (unmodified, modified, or mutant) containing 53 μM RB3 for a final T2R concentration of 50 μM in a buffer containing 25 mM Tris-d11, 25 mM NaCl, 2.5 mM EDTA, 1.5 mM DTT, and 10% heavy water (deuterium oxide [D2O]) at pH 6.7. For ^1H STD NMR experiments, 10 μM T2R was used for samples containing 0.044 to 2.8 mM peptide. Peptide was directly dissolved into buffer or water and added to 10 μM T2R in a buffer containing 25 mM Tris-d11, 25 mM NaCl, 2.5 mM EDTA, 1.5 mM DTT, and 10% D2O at pH 6.7.
STD spectra were recorded at 10 °C on a 600 MHz spectrometer equipped with a cryoprobe by using a series of 40 equally spaced 50 ms Gaussian-shaped pulses, 4096 scans, a saturation time of 2 s, and on/off-resonance frequencies set to −0.5 and 60 ppm, respectively. Samples for ^1H STD NMR were dissolved into GPEM buffer (80 mM PIPES, 2 mM MgCl2, and 0.5 mM EGTA, at pH 6.9). Spectra were processed and analyzed using Topspin 3.1 (Bruker). We quantify the binding of tau peptides to T2R with a series of STD titration experiments ([95]). STD NMR spectra of the ligand with and without T2R were recorded. The concentration of ligand (tau peptide) ranged from 0.04 to 2.8 mM; T2R concentration was maintained at 10 μM. From STD NMR spectra, STD signals were integrated and summed for both STDdiff and STDref over three regions, 8.565 to 7.771, 7.584 to 7.384, and 7.073 to 6.681 ppm. From STDdiff and STDref, STD AFs (STDAF) were calculated according to Equation 1, where [L] is the concentration of peptide (0.04–2.8 mM) and [R] is the concentration of T2R (10 μM). […] STD-AF values (at a fixed saturation time) of a peptide were fitted according to Equation 2, where αSTD represents the maximum STD AF ([72]). For peptide concentration of […] and T2R concentration of 10 μM, we generated STD build-up curves by recording the STD difference signal at increasing saturation times of 0.1 to 4 s. […] (2) STDAF([L])=αSTD∗[L]/Kd+[L] (3) STDAF(t)=STDmax(1−e^(−Ksat∗t)) STD0=STDmax∗Ksat

NIKHVPGGGSVQIV {phospho-Y} KPVDLSKVTSK [Phos-Y310 296 to 321, Y310 phosphorylated form of the 296 to 321 peptide]
STD signal / binding to T2R (listed as phosphorylation at residue Y310): weaker STD signal; also recorded: Decreases in binding
apparent Kd / affinity for T2R (in words) (peptide 0.044 to 2.8 mM, listed as Y310 phosphorylated peptide): severely reduced peptide binding to T2R
apparent Kd / affinity for T2R (in words) (peptide 0.044 to 2.8 mM, listed as Y310 phosphorylated peptides): precluded a reliable fit
apparent Kd / affinity for T2R (in words) (peptide 0.044 to 2.8 mM, listed as phosphorylation at Y310): linear binding curve over the accessible range of peptide concentrations, precluding a robust fit to the data, but indicating a more severe reduction in affinity

NIKHVPGGGSVQIVY {succinyl-K} PVDLSKVTSK [Succinyl-K311 296 to 321, K311 succinylated form of the 296 to 321 peptide]
STD signal / binding to T2R (listed as succinylation at residue K311): loss of binding is evident; also recorded: Decreases in binding
apparent Kd / affinity for T2R (in words) (peptide 0.044 to 2.8 mM, listed as Succinylation at K311): trend toward lower apparent affinity
apparent Kd / affinity for T2R (in words) (peptide 0.044 to 2.8 mM, listed as Succinylation of K311): trend toward reduced binding, though to a lesser extent
apparent Kd increase vs 296 to 321 peptide (STD-AF, peptide 0.044 to 2.8 mM, trend): ca. twofold

NLKHQPGGGKVQIIN {acetyl-K} KLDLSNVQSK [Acetyl-K280 265 to 290, K280 acetylated form of the 265 to 290 peptide]
STD signal / binding to T2R (listed as acetylation at K280): further weakened
STD signal / binding to T2R (listed as acetylation at residue K280): Decreases in binding
apparent Kd / affinity for T2R (in words) (peptide 0.044 to 2.8 mM, listed as K280 acetylation): trend toward reduced binding, though to a lesser extent
